Test results as given in patent US20150352108A1, “AMINO-PYRIMIDINE COMPOUNDS AS INHIBITORS OF TBK1 AND/OR IKK EPSILON” (Alzheimer's Institute of America, priority 2009, published 2015).

Biological target: T1, IKKε (Homo sapiens, UniProt Q14164)
T1 construct: His-tag; made in house; host or cells: Sf9 insect cells
T1 sequence (Q14164 1-716): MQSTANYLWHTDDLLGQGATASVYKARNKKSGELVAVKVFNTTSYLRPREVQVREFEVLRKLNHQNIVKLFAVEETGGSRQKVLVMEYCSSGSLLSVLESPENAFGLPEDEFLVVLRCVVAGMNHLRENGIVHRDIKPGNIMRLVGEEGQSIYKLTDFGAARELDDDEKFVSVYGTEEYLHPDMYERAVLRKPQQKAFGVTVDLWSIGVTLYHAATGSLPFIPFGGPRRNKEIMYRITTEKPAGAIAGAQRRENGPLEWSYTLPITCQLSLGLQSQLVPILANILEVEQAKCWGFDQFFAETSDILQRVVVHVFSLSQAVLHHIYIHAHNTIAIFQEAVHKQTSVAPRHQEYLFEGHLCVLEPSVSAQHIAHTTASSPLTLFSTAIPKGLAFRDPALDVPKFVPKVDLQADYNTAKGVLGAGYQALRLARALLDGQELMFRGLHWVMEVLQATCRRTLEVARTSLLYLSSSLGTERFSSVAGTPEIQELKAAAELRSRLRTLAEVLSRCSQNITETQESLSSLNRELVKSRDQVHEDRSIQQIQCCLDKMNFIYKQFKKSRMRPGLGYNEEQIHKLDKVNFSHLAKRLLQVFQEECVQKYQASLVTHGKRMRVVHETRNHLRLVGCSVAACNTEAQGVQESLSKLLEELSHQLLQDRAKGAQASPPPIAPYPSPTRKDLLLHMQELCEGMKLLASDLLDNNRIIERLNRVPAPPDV
Experiment: In-vitro IKKε kinase assay ([γ33]ATP filter-plate)
Format: biochemical
Conditions: text bins; read-out: IC50 for inhibition of the kinase activity of IKKε
Description: IKKε enzyme was produced as a His-tag fusion in Sf9 cells and used at a final concentration of […]. TBK1 enzyme was produced as a His-tag fusion in Sf9 cells and used at a final concentration of 0.1 μg/ml. Kinase reactions were carried out in reaction buffer using myelin basic protein (Millipore, Ballerica, Mass.) or casein (Sigma, St. Louis, Mo.) as substrate at an ATP concentration equal to twice the Km,ATP value for each enzyme, corresponding to 32 μM ATP for IKKε and 60 μM ATP for TBK1, in the presence of 0.3 μCi [γ^33]ATP (PerkinElmer, Waltham, Mass.). Final enzyme concentrations were 0.1 or 0.015 μg/ml (IKKε) and 0.1 or 0.02 μg/ml (TBK1), representing “normal” and “sensitized” assay conditions respectively. Test compounds (or DMSO solvent as a control) were added prior to initiation of the reactions. Reactions were terminated after 30-45 minutes by adding 3% phosphoric acid. Terminated reactions were transferred to P-81 cellulose phosphate filterplates (Whatman, Inc., Piscataway, N.J.) and washed with 1% phosphoric acid on a vacuum apparatus. After air drying, scintillant (PerkinElmer, Waltham, Mass.) was added and the plates were read on a PerkinElmer TopCount NXT instrument. Counts were normalized to DMSO controls after background subtraction.

IC50 | SMILES
50 to 500 nM | N#Cc1cc(-c2ccnc(Nc3ccc(N4CCOCC4)cc3)n2)ccc1NC(=O)C1CCOCC1 [Example 97, N-[2-cyano-4-(2-{[4-(morpholin-4-yl)phenyl]amino}pyrimidin-4-yl)phenyl]tetrahydro-2H-pyran-4-carboxamide]
5 to 50 nM | N#Cc1cc(-c2ccnc(Nc3ccc(N4CCOCC4)cc3)n2)ccc1NC(=O)C1CCCC1 [Example 56, N-[2-cyano-4-(2-{[4-(morpholin-4-yl)phenyl]amino}pyrimidin-4-yl)phenyl] cyclopentane-carboxamide]
50 to 500 nM | N#Cc1cc(-c2ccnc(Nc3ccc(N4CCOCC4)cc3)n2)ccc1SC1CCCCC1 [Example 137, 2-(cyclohexylsulfanyl)-5-(2-{[4-(morpholin-4-yl)phenyl]amino}pyrimidin-4-yl)benzonitrile]
5 to 50 nM | COc1ccc(Nc2nccc(-c3cccc(C#N)c3)n2)cc1OC [compound 352, 3-{2-[(3,4-Dimethoxyphenyl)amino]pyrimidin-4-yl}benzonitrile]
50 to 500 nM | CN(C)C(=O)Nc1ccc(-c2ccnc(Nc3ccc(N4CCOCC4)cc3)n2)cc1C#N [Example 81, 3-[2-cyano-4-(2-{[4-(morpholin-4-yl)phenyl]amino}pyrimidin-4-yl)phenyl]-1,1-dimethylurea]
50 to 500 nM | CN1CCN(CCOc2ccc(Nc3nccc(-c4cccc(C#N)c4)n3)cc2)CC1 [Example 292, 3-[2-({4-[2-(4-Methylpiperazin-1-yl)ethoxy]phenyl}amino)pyrimidin-4-yl]benzonitrile]
50 to 500 nM | CC(C)C(=O)NCCOc1ccc(-c2ccnc(Nc3ccc(N4CCOCC4)cc3)n2)cc1C#N [Example 153, N-{2-[2-cyano-4-(2-{[4-(morpholin-4-yl)phenyl]amino}pyrimidin-4-yl)phenoxy]ethyl}-2-methylpropanamide]
5 to 50 nM | CCNS(=O)(=O)c1ccc(Nc2nccc(-c3ccc(NC(=O)C(C)C)c(C#N)c3)n2)cc1 [compound 449, N-[2-cyano-4-(2-{[4-(ethylsulfamoyl)phenyl]amino}pyrimidin-4-yl)phenyl]-2-methylpropanamide]
50 to 500 nM | N#Cc1cccc(-c2ccnc(Nc3ccc(OCC(=O)N4CCOCC4)cc3)n2)c1 [compound 386, 3-[2-({4-[2-(Morpholin-4-yl)-2-oxoethoxy]phenyl}amino)pyrimidin-4-yl]benzonitrile]
5 to 50 nM | CN(C)CCOc1ccc(-c2ccnc(Nc3ccc(N4CCOCC4)cc3)n2)cc1C#N [Example 58, 2-[2-(Dimethylamino)ethoxy]-5-(2-{[4-(morpholin-4-yl)phenyl]amino}pyrimidin-4-yl)benzonitrile]
50 to 500 nM | CC(C)(C)c1ccc(Nc2nccc(-c3cccc(C#N)c3)n2)cc1 [Example 282, 3-{2-[(4-tert-Butylphenyl)amino]pyrimidin-4-yl}benzonitrile]
5 to 50 nM | CC(C)C[C@H](O)C(=O)N1CCC(Oc2ccc(-c3ccnc(Nc4ccc(N5CCOCC5)cc4)n3)cc2C#N)CC1 [Example 229, 2-({1-[(2S)-2-hydroxy-4-methylpentanoyl]piperidin-4-yl}oxy)-5-(2-{[4-(morpholin-4-yl)phenyl]amino}pyrimidin-4-yl)benzonitrile]
50 to 500 nM | COc1ccc(-c2ccnc(Nc3cccc(NC(=O)NC4CCCC4)c3)n2)cc1C#N [compound 348, 1-(3-{[4-(3-Cyano-4-methoxyphenyl)pyrimidin-2-yl]amino}phenyl)-3-cyclopentylurea]
5 to 50 nM | COc1ccc(Nc2nccc(-c3ccc(Cl)c(C#N)c3)n2)cc1OC [Example 182, 2-Chloro-5-{2-[(3,4-dimethoxyphenyl)amino]pyrimidin-4-yl}benzonitrile]
50 to 500 nM | CN1CCN(C2CCN(c3ccc(-c4ccnc(Nc5ccc(N6CCOCC6)cc5)n4)cc3C#N)CC2)CC1 [Example 213, 2-[4-(4-Methylpiperazin-1-yl)piperidin-1-yl]-5-(2-{[4-(morpholin-4-yl)phenyl]amino}pyrimidin-4-yl)benzonitrile]
50 to 500 nM | COc1ccc(-c2ccnc(Nc3ccc(NC(=O)NCCO)cc3)n2)cc1C#N [Example 9, 1-(4-{[4-(3-Cyano-4-methoxyphenyl)pyrimidin-2-yl]amino}phenyl)-3-(2-hydroxyethyl)urea]
< 5 nM | N#Cc1cc(-c2ccnc(Nc3cccc(NC(=O)N4CC(O)C4)c3)n2)ccc1OC1CCOCC1 [compound 598, N-[3-({4-[3-Cyano-4-(tetrahydro-2H-pyran-4-yloxy)phenyl]pyrimidin-2-yl}amino)phenyl]-3-hydroxyazetidin-1-carboxamide]
5 to 50 nM | COc1cc(NC(=O)CN(C)C)cc(Nc2nccc(-c3ccc(OC)c(C#N)c3)n2)c1 [compound 336, N-(3-{[4-(3-Cyano-4-methoxyphenyl)pyrimidin-2-yl]amino}-5-methoxyphenyl)-N~2~,N~2~- dimethylglycinamide]
50 to 500 nM | N#Cc1cc(-c2ccnc(Nc3ccc(N4CCOCC4)cc3)n2)ccc1OC1CN(CCO)C1 [compound 474, 2-{[1-(2-hydroxyethyl)azetidin-3-yl]oxy}-5-(2-{[4-(morpholin-4-yl)phenyl]amino}pyrimidin-4-yl)benzonitrile]
50 to 500 nM | COc1ccc(Nc2ncc(C)c(-c3cccc(C#N)c3)n2)cc1OC [compound 304, 3-{2-[(3,4-Dimethoxyphenyl)amino]-5-methylpyrimidin-4-yl}benzonitrile]
5 to 50 nM | CS(=O)(=O)N(c1ccc(-c2ccnc(Nc3ccc(N4CCOCC4)cc3)n2)cc1C#N)S(C)(=O)=O [Example 167, N-[2-Cyano-4-(2-{[4-(morpholin-4-yl)phenyl]amino}pyrimidin-4-yl)phenyl]-N-(methylsulfonyl) methanesulfonamide]
< 5 nM | N#Cc1cc(-c2ccnc(Nc3cccc(NC(=O)NC4CCC(O)CC4)c3)n2)ccc1OC1CCOCC1 (stereo not drawn) [compound 589, 1-[3-({4-[3-Cyano-4-(tetrahydro-2H-pyran-4-yloxy)phenyl]pyrimidin-2-yl}amino)phenyl]-3-(4-hydroxycyclohexyl) urea]
< 5 nM | COC1CCN(c2cccc(Nc3nccc(-c4ccc(O[C@@H]5CCN(C(=O)CO)C5)c(C#N)c4)n3)c2)C1 (stereo partly drawn) [compound 546, 2-{[(3R)-1-(Hydroxyacetyl)pyrrolidin-3-yl]oxy}-5-(2-{[3-(3-methoxypyrrolidin-1-yl)phenyl]amino}pyrimidin-4-yl)benzonitrile]
50 to 500 nM | CC(C)C(=O)Nc1ccc(-c2ccnc(Nc3ccc(C(C)CN4CCOCC4)cc3)n2)cc1C#N (stereo not drawn) [compound 452, N-{2-cyano-4-[2-({4-[1-(morpholin-4-yl)propan-2-yl]phenyl}amino)pyrimidin-4-yl]phenyl}-2-methylpropanamide]
5 to 50 nM | CCN(CC)CCc1ccc(Nc2nccc(-c3ccc(NC(=O)C(C)C)c(C#N)c3)n2)cc1 [compound 454, N-{2-cyano-4-[2-({4-[2-(diethylamino)ethyl]phenyl}amino)pyrimidin-4-yl]phenyl}-2-methylpropanamide]
50 to 500 nM | N#Cc1cc(-c2ccnc(Nc3ccc(N4CCOCC4)cc3)n2)ccc1OC1CN(C(=O)CO)C1 [Example 131, 2-{[1-(hydroxyacetyl)azetidin-3-yl]oxy}-5-(2-{[4-(morpholin-4-yl)phenyl]amino}pyrimidin-4-yl)benzonitrile]
5 to 50 nM | COc1cc(Nc2nccc(-c3ccc(OC4CCNCC4)c(C#N)c3)n2)ccc1S(=O)(=O)NCCCO [compound 399, 4-({4-[3-cyano-4-(piperidin-4-yloxy)phenyl]pyrimidin-2-yl}amino)-N-(3-hydroxypropyl)-2-methoxybenzene-sulfonamide]
